Key:
[1] = system: Rat CC14 liver damage model; test: Rat CC14 liver damage model (chronic liver fibrosis); assay type: in vivo, SD rat; parameters: Liver parameters: unit not given here; details: Gan-li-xin 25 mg/kg iv, once a day for 2 weeks from week 5
Experimental: To evaluate the protective effect of peptide SEQ ID NO:1 on liver damage, we used chronic liver fibrosis model (rat CC14 model) for efficacy evaluation.
Rat CC14 liver damage model
(1) Control group: saline, sc, 2 ml/kg, 10 rats
(2) model group: 40% CC14, sc, 2 ml/kg, 17 rats
(3) Gan-li-xin group: 25 mg/kg, iv, 10 ml/kg, 15 rats
(4) Prevention, high dose group: 50 μg peptide SEQ ID NO:1/kg, iv, 10 ml/kg, 17 rats
(5) Prevention, low dose group: 10 μg peptide SEQ ID NO:1/kg, iv, 10 ml/kg, 17 rats
(6) Treatment, high dose group: 100 μg peptide SEQ ID NO:1/kg, iv, 10 ml/kg, 17 rats
(7) Treatment, high dose group: 20 μg peptide SEQ ID NO:1/kg, iv, 10 ml/kg, 17 rats
Except for control group, inject 40% CC14 subcutaneously twice (Tuesday, and Friday) every week in Group (2) to (6), drug volume (0.2 ml/100 g, the first time 0.5 ml/100 g). CC14 Model construction is 6 weeks. Parallel to the model construction, inject intravenously peptide SEQ ID NO:1 at 50 μg/kg and 10 μg/kg in group (4) and (5), respectively, once a day for 6 weeks. For Group (3), (6), and (7), starting from week 5, inject Gan-li-xin 25 mg/kg, peptide SEQ ID NO:1 at 100 μg/kg and 20 μg/kg, respectively, once a day, continuously for 2 weeks.
All rats were weighed once a week during model construction and drug injection. According to weight, the dose of drugs is adjusted. 24 hours after the last time of CC14 injection, liver weight parameters were examined.
Blood was extracted from femoral artery and serum was separated. The following parameters were examined: serum alanine aminotransferase (ALT), aspartate aminotransferase (AST), Bilirubin (TB), Alkaline phosphatase (ALP), total protein (TP), albumin (ALB), globulin (G), albumin/globulin ratio (A/G), glucose (GLU), total cholesterol (TCH), triglyceride (TG).
Liver homogenate: to examine cholesterol (TCH), triglyceride (TG), alanine aminotransferase (ALT), and aspartate aminotransferase (AST).
[…], dry at 110 C, examine Hydroxyproline (HPA).
Part of the liver is fixed in formalin for histology examination.

[2] = system: human stomach cancer SGC-7901; test: Human stomach cancer SGC-7901 xenograph nude mice; assay type: in vivo; details: positive control, 25 mg/kg, once a week, 3 weeks
Experimental: (§1) Experimental animals: Female BALB/cA nude mice, age 35-40 days, weight 18-22 g, provided by Shanghai Silaike Experimental Animal Co. Ltd., certificate number: SOCK (Shanghai) 2007-0005.
(§2) The tumor of xenograph nude mice grew to 100˜300 mm^3. Tumor mice were divided into different groups for drug testing. In the experiment below, there were 12 nude mice in negative control group, and 6 nude mice in the group with tested drug. Tumor diameter was measured three times each week, and mice weight was measured at the same time.
(§3) T/C (relative tumor inhibition rate) % was calculated as below: • (1) tumor volume, TV, calculated as below: TV=½×a×b^2 • A and b are length and width. • (2) relative tumor volume, RTV, calculated as below: RTV=TVt/TV0. • TV0 ? is tumor volume at the beginning of drug use (d0), TVt is tumor volume at later time point. • (3) relative tumor inhibition rate T/C (%), calculate as below:
(§4) [formula] TRTV: treatment group RTV; CRTV: negative control RTV
Peptide SEQ ID No:1 was given through tail vain (IV), at dosing of 1 mg/kg, 0.5 mg/kg, 0.25 mg/kg, 0.125 mg/kg, and 0.0625 mg/kg, 6 times a week. 5-FU was positive control, at dosing of 25 mg/kg, once a week. Negative control was given saline solution. The xenograph nude mice were treated for 3 weeks.

liver cancer (H22) = test: Xenograph liver cancer nude mice model (H22); assay type: in vivo; details: H22, positive control, 10 mg/kg
Experimental: as §1, §2, §3, §4

[3] = system: human breast cancer MDA-MB-435; test: Human breast cancer MDA-MB-435 xenograph nude mice; assay type: in vivo; details: positive control, 20 mg/kg, once a week, 4 weeks
Experimental: as §1, §2, §3, §4
Peptide SEQ ID No:1 was given through tail vein (IV), at dosing of 2 mg/kg, 1 mg/kg, 0.5 mg/kg, 6 times a week. Docetaxol was positive control, at dosing of 20 mg/kg, once a week. Negative control was given saline solution. The xenograph nude mice were treated for 4 weeks.

human lung cancer A549 = test: Human lung cancer A549 xenograph nude mice; assay type: in vivo; details: positive control, 20 mg/kg, once a week, 3 weeks
Experimental: as §1, §2, §3, §4
Peptide SEQ ID No:1 was given through tail vein (IV), at dosing of 0.5 mg/kg, 0.25 mg/kg, and 0.125 mg/kg, 6 times a week. Docetaxol was positive control, at dosing of 20 mg/kg, once a week. Negative control was given saline solution. The xenograph nude mice were treated for 3 weeks.

Which results are given for CC1(C)[C@@H](O[C@H]2O[C@H](C(=O)O)[C@@H](O)[C@H](O)[C@H]2O[C@@H]2O[C@H](C(=O)O)[C@@H](O)[C@H](O)[C@H]2O)CC[C@]2(C)[C@H]3C(=O)C=C4[C@@H]5C[C@@](C)(C(=O)O)CC[C@]5(C)CC[C@@]4(C)[C@]3(C)CC[C@@H]12.N.N [Gan-li-xin, Diammonium glycyrrhizinate, reference compound]?
ALB (albumin), serum [1]: 17.9 ± 2.5 g/L; ALP (alkaline phosphatase), serum [1]: 351.6 ± 134.1 IU/L; ALT (alanine aminotransferase), serum [1]: 73.6 ± 25 IU/L; AST (aspartate aminotransferase), serum [1]: 253.3 ± 69.3 IU/L; Bilirubin, serum [1]: 3.3 ± 0.6 µmol/L; GLU (glucose), serum [1]: 5.4 ± 0.7 mmol/L; Liver parameters [1]: 4.4 ± 0.6; Liver weight [1]: 11.6 ± 3.5 g; TCH (total cholesterol), serum [1]: 1.7 ± 0.5 mmol/L; TG (triglyceride), serum [1]: 0.7 ± 0.3 mmol/L; TP (total protein), serum [1]: 64.8 ± 5.4 g/L; hydroxyproline amount in rat liver [1]: 0.191 ± 0.038 ug/mg wet weight

How did the “T/C(%) relative tumor inhibition rate” value [2] turn out when O=c1[nH]cc(F)c(=O)[nH]1 [Peptide 5-FU, reference compound] was run?
The value was 68.71%.

Which “inhibition rate, tumor” value (liver cancer (H22)) does the source give for CC(=O)O[C@H]1C(=O)[C@@]2(C)[C@H]([C@H](OC(=O)c3ccccc3)[C@]3(O)C[C@H](OC(=O)[C@H](O)[C@@H](NC(=O)c4ccccc4)c4ccccc4)C(C)=C1C3(C)C)[C@]1(OC(C)=O)CO[C@@H]1C[C@@H]2O [Taxol, reference compound] here?
The value was ~67.8%.

For CC(=O)O[C@@]12CO[C@@H]1C[C@H](O)[C@@]1(C)C(=O)[C@H](O)C3=C(C)[C@@H](OC(=O)[C@H](O)[C@@H](NC(=O)OC(C)(C)C)c4ccccc4)C[C@@](O)([C@@H](OC(=O)c4ccccc4)[C@H]21)C3(C)C [docetaxel, reference compound], which “T/C(%) relative tumor inhibition rate” value [3] is on record?
The value was 16.51%.

What about the “T/C(%) relative tumor inhibition rate” value (human lung cancer A549) of the same compound?
Its value is 18.60%.
